Data set [1] in a line: preparation and stability of crystal suspensions of microcrystalline rapamycin / everolimus in solutions of different tri-O-acylglycerols (Examples 2, 3). As to conditions: ethyl acetate/heptane solution; standing and temperature elevation.
Text: In the first step, solutions of tri-O-acylglycerols were first prepared in a solvent mixture. Subsequently, the solutions were combined with microcrystals of rapamycin and everolimus to investigate which tri-O-acylglycerols could be used to obtain stable crystal suspensions. The composition of the solvents and solvent mixture varied depending on the active agent used. The solutions and solvent mixtures prepared in the example apply to rapamycin (SIR) and everolimus (EVR). For the preparation of the solutions, an ethyl acetate/heptane solvent mixture was used here as an example.
To prepare the solutions, 770 mg of the respective tri-O-acylglycerol and optionally 150 mg BHT were dissolved in 14 g ethyl acetate (15.6 mL). Then, 57.4 g of n-heptane (84.4 mL) was added. Subsequently, homogenization and filtration were performed. The total volume of the solvent mixture is 100 mL.
To a precisely weighed amount of dry microcrystals of the previously prepared limus active agent, a defined amount of the solutions containing tri-O-acylglycerol and optionally antioxidant is carefully added. It was investigated whether the microcrystals of the limus active agent are not soluble in the solutions and whether suspensions are formed.
To check whether crystal suspension can be prepared, to each 200 mg of rapamycin in the form of microcrystals or 200 mg of everolimus in the form of microcrystals were carefully added 10 mL of one of the solutions 1a) to 1t) at room temperature. Three mixtures of 10 mL of solution for each solution were prepared. After combining, it was tested whether the microcrystals of limus active agents dissolved directly in the solutions. For solutions where there was no immediate dissolution of the microcrystals of the limus active agents, the suspensions of the solutions without antioxidant were allowed to stand for a period of 100 h and tested again to see if the microcrystals of the limus active agents dissolved.
Three mixtures of 10 mL of solution for each solution were prepared. After combining, it was tested whether the microcrystals of limus active agents dissolved directly in these solutions. For solutions where there was no immediate dissolution of the microcrystals of the limus active agents, the suspensions of the solutions without antioxidant were allowed to stand for a period of 100 hours and tested again to see if the microcrystals of the limus active agents dissolved.
The conditions of data set [2]: cited from earlier work.
The conditions of data set [3]: cited from earlier work. This is another data set of the same source.

Like-named read-outs stand apart in the source and are kept apart here.

For `CCCCCCCC(=O)OCC(COC(=O)CCCCCCC)OC(=O)CCCCCCC` [Trioctanoylglycerol, trioctanoylglycerol], the “stability of the crystal suspension of microcrystalline everolimus and rapamycin with the tri-O-acylglycerol” value (shortened to “stability”) in data set [1] is “remained stable even after 100 h and under temperature elevation”. Further, the solubility in water entry in data set [2] is on record as “practically insoluble in water”.
Take `CCCCCCCCCC(=O)OCC(COC(=O)CCCCCCCCC)OC(=O)CCCCCCCCC` [Tridecanoylglycerol, tridecanoylglycerol]: the “stability” value in data set [1] is “remained stable even after 100 h and under temperature elevation”.
On to `CCCCCCCCC(=O)OCC(COC(=O)CCCCCCCC)OC(=O)CCCCCCCC` [Trinonanoylglycerol, trinonanoylglycerol], for which the “stability” value in data set [1] was “remained stable after 24-48 hours and under temperature elevation”. Further, in data set [2], the solubility in water result is “practically insoluble in water”.
Regarding `CCCCCCCCCCC(=O)OCC(COC(=O)CCCCCCCCCC)OC(=O)CCCCCCCCCC` [Triundecanoylglycerol, 1,3-bis(undecanoyloxy)propan-2-yl-undecanoate], the “stability” value in data set [1] is “remained stable after 24-48 hours and under temperature elevation”. Further, in data set [2], the solubility in water entry was “practically insoluble in water”.
Regarding `CC(C)Cc1ccccc1` [iso-butylbenzene], the logKOW in data set [3] (nonpolar organic solvents, rounded values (Table 4)) was 4.1.
Regarding `CCCOCCC` [Dipropyl ether], the logKOW entry in data set [3] (polar organic solvents, rounded values (Table 6)) is “+2.0”.

These data come from patent US20230414839A1, “COATED MEDICAL PRODUCT” (HEMOTEQ AG, priority 2020, published 2023).
